Our source for the Kb values is paper PMC4231100, “Cerebral Artery Alpha-1 AR Subtypes: High Altitude Long-Term Acclimatization Responses” (PLoS ONE, 2014).

SMILES strings stand for the structures. Counter-ions that a name gives are not always drawn.

Experiment [1] has as its target T1, α1D-AR (Ovis aries, UniProt A0ACI6RHM3).
T1 construct: gene ADRA1D
T1 sequence (A0ACI6RHM3 1-564): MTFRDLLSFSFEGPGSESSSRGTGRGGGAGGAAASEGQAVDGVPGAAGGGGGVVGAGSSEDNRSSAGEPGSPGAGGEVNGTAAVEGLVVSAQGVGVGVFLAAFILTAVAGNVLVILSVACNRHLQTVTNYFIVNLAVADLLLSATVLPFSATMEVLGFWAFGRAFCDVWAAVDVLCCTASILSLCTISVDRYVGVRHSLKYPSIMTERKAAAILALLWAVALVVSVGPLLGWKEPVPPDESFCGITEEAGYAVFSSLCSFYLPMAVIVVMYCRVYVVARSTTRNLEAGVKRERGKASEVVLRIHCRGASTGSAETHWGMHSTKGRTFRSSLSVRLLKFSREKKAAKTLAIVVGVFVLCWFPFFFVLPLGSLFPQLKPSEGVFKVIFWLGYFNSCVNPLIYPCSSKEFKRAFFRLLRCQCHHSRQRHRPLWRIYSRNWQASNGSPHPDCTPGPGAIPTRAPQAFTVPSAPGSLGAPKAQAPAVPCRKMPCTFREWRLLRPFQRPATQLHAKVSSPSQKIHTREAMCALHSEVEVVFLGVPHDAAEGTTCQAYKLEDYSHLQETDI
In words: functional antagonism (KB) of phenylephrine-induced contraction in isolated arteries.

Experiment [2] deals with T2, α1A-AR (Ovis aries, UniProt A0ACI6NWI5).
T2 construct: gene ADRA1A
T2 sequence (A0ACI6NWI5 1-466): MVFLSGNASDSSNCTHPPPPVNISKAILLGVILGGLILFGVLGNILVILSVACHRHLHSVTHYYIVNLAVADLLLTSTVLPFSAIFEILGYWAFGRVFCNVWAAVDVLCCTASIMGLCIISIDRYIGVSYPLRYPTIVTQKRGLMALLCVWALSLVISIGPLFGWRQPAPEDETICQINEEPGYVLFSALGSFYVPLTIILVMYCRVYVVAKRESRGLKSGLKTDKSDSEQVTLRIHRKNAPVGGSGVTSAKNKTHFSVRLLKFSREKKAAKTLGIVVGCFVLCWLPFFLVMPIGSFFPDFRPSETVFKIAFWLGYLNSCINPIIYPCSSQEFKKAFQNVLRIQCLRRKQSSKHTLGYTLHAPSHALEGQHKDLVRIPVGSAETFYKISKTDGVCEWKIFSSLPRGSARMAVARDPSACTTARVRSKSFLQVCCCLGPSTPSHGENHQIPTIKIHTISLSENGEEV
The description is as above.

In experiment [1], `COc1ccccc1N1CCN(CCN2C(=O)CC3(CCCC3)CC2=O)CC1` [BMY, 8-(2-[4-(2-Methoxyphenyl)-1-piperazinyl]ethyl)-8-azaspiro(4.5)decane-7,9-dione] displayed a Kb of 6.7 nM.
In turn, `COc1cccc(OC)c1OCCNCC1COc2ccccc2O1` (centres unmarked) [WB, 2-([2,6-Dimethoxyphenoxyethyl]a-minomethyl)-1,4-benzodioxane hydrochloride] displayed a Kb in experiment [2] of 11 nM.

What is called Kb is the affinity of an antagonist, worked out from how it opposes an agonist. Low readings indicate higher antagonist affinity, high ones lower antagonist affinity.
